The structures appear in SMILES notation.

For 40 compounds, IC50 results are on record in patent US8415378B2, “Isoxazol-3(2H)-one analogs as therapeutic agents” (AstraZeneca AB, priority 2009, dated 2013).

T1 sequence (P00747 20-810 limits assumed): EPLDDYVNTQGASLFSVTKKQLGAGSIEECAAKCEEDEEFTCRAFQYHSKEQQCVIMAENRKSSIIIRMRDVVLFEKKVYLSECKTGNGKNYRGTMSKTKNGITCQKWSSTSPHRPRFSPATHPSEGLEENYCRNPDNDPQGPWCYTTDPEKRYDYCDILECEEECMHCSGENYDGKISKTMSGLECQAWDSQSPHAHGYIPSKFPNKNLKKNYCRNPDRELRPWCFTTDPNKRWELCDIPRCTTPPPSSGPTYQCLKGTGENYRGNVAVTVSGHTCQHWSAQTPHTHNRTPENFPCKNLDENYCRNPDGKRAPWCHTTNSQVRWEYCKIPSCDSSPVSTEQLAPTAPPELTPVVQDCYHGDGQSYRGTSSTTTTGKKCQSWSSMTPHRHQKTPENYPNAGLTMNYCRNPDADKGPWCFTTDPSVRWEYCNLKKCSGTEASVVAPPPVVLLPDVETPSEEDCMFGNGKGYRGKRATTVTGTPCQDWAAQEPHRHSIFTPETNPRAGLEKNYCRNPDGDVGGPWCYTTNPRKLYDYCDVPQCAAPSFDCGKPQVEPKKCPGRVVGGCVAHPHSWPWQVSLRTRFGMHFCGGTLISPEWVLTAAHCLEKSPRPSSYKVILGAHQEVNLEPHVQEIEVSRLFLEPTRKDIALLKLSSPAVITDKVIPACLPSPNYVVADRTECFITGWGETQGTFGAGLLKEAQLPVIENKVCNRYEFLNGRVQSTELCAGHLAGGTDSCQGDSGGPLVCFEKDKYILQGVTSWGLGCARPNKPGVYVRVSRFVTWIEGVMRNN

This assay concerns the target T1, human Glu-plasminogen (Homo sapiens, UniProt P00747).
T1 construct: human Glu-plasminogen; purchased Chromogenix, Italy
The assay is described as follows: Clot-lysis buffer assay. It counts as biochemical. On the procedure:
The assay method used for evaluating biological activity of the compounds according to the invention was Clot-lysis buffer assay.
Tested substance were added to the reaction mixture in 10% DMSO. Reaction was started by the addition of thrombin.
Measured according to the Clot-lysis buffer assay described above.
Usually IC50 stands for the concentration needed to halve the response being measured. The low end stands for greater potency in that assay, the high end for weaker potency in that assay. As to `O=c1cc([C@H]2CCN[C@H](Cc3ccc(C(F)(F)F)cc3)C2)o[nH]1` [Example 105, 5-((2S,4S)-2-(4-(Trifluoromethyl)benzyl)piperidin-4-yl)isoxazol-3(2H)-one], the IC50 came out at 7.2 µM. This counts as single-digit micromolar.

With `Cc1cc([C@@H]2C[C@H](c3cc(=O)[nH]o3)CCN2)ccc1C(F)(F)F` [Example 68, 5-((2S,4R)-2-(3-Methyl-4-(trifluoromethyl)phenyl)piperidin-4-yl)isoxazol-3(2H)-one], it took 81.1 µM to reach half-maximal inhibition (IC50). This IC50 lies about 11-fold higher than the previous one.

`O=c1cc([C@H]2CCN[C@@H](c3cc(F)c(Cl)c(F)c3)C2)o[nH]1` [Example 65, 5-((2R,4S)-2-(4-Chloro-3,5-difluorophenyl)piperidin-4-yl)isoxazol-3(2H)-one] showed an IC50 of 2.2 µM.

For `O=c1cc([C@@H]2CCN[C@H](COC3CCCCC3)C2)o[nH]1` [Example 85, 5-((2S,4R)-2-(Cyclohexyloxymethyl)piperidin-4-yl)isoxazol-3(2H)-one], the half-maximal inhibitory concentration (IC50) worked out at 173 µM.

Consider `O=c1cc([C@@H]2CCN[C@H](CCc3ccc(F)cc3)C2)o[nH]1` [Example 93, 5-((2R,4R)-2-(4-Fluorophenethyl)piperidin-4-yl)isoxazol-3(2H)-one], for which the 50% inhibitory concentration (IC50) came to 69.8 µM.

The compound `O=c1cc([C@@H]2CCN[C@H](Cc3cc(F)c(F)c(F)c3)C2)o[nH]1` [Example 144, 5-((2S,4R)-2-(3,4,5-Trifluorobenzyl)piperidin-4-yl)isoxazol-3(2H)-one] gave a 50% inhibitory concentration (IC50) of 88.2 µM. The IC50 values of the last two compounds are within 1.5-fold of each other.

In the case of `O=c1cc([C@@H]2CCN[C@@H](Cc3ccc(Cl)cc3)C2)o[nH]1` (relative stereo) [Example 116, 5-(Trans-2-(4-chlorobenzyl)piperidin-4-yl)isoxazol-3(2H)-one], the 50% inhibitory concentration (IC50) was 5.6 µM. This IC50 is about 16-fold lower than that of the compound before.

The compound `O=c1cc([C@H]2CCN[C@@H](c3cccc(C(F)(F)F)c3)C2)o[nH]1` [Example 30, 5-((2R,4S)-2-(3-(Trifluoromethyl)phenyl)piperidin-4-yl)isoxazol-3(2H)-one] showed an IC50 of 0.7 µM.

Turning to `O=c1cc([C@H]2CCN[C@@H](c3cc(Cl)cc(Cl)c3)C2)o[nH]1` [Example 55, 5-((2R,4S)-2-(3,5-Dichlorophenyl)piperidin-4-yl)isoxazol-3(2H)-one], half-maximal inhibition (IC50) was put at 0.6 µM.

In the case of `O=c1cc([C@H]2CCN[C@@H](c3ccc(C(F)(F)F)nc3)C2)o[nH]1` [Example 40, 5-((2R,4S)-2-(6-(Trifluoromethyl)pyridin-3-yl)piperidin-4-yl)isoxazol-3(2H)-one], the half-maximal inhibitory concentration (IC50) amounted to 1.5 µM.

In the case of `O=c1cc([C@@H]2CCN[C@H](c3ccc(C(F)(F)F)c(F)c3)C2)o[nH]1` [Example 76, 5-((2S,4R)-2-(3-Fluoro-4-(trifluoromethyl)phenyl)piperidin-4-yl)isoxazol-3(2H)-one], the IC50 worked out at 190 µM.

For `O=c1cc([C@@H]2CCN[C@@H](c3ccc(F)cc3)C2)o[nH]1` (relative stereo) [Example 26, 5-(Trans-2-(4-fluorophenyl)piperidin-4-yl)isoxazol-3(2H)-one], the 50% inhibitory concentration (IC50) was found to be 73.8 µM.

Turning to `O=c1cc([C@H]2CCN[C@@H](CC3CCC(F)(F)CC3)C2)o[nH]1` [Example 89, 5-((2S,4S)-2-((4,4-Difluorocyclohexyl)methyl)piperidin-4-yl)isoxazol-3(2H)-one], the 50% inhibitory concentration (IC50) was found to be 1.5 µM. Against the preceding compound, the IC50 is about 49-fold lower.

Consider `O=c1cc([C@@H]2CCN[C@@H](Cc3cc(F)cc(C(F)(F)F)c3)C2)o[nH]1` (relative stereo) [Example 139, 5-(Trans-2-(3-fluoro-5-(trifluoromethyl)benzyl)piperidin-4-yl)isoxazol-3(2H)-one], for which it took 2.9 µM to reach half-maximal inhibition (IC50).

In the case of `O=c1cc([C@@H]2CCN[C@H](c3cc(Cl)cc(Cl)c3)C2)o[nH]1` [Example 56, 5-((2S,4R)-2-(3,5-Dichlorophenyl)piperidin-4-yl)isoxazol-3(2H)-one], the concentration for half-maximal inhibition (IC50) stood at 43.8 µM.

`O=c1cc([C@@H]2CCN[C@@H](c3ccc(Cl)cc3F)C2)o[nH]1` (relative stereo) [Example 46, 5-(Trans-2-(4-chloro-2-fluorophenyl)piperidin-4-yl)isoxazol-3(2H)-one] returned an IC50 of 90.7 µM.

Take `O=c1cc([C@@H]2CCN[C@H](Cc3ccc(C(F)(F)F)c(F)c3)C2)o[nH]1` [Example 141, 5-((2S,4R)-2-(3-Fluoro-4-(trifluoromethyl)benzyl)piperidin-4-yl)isoxazol-3(2H)-one]: the IC50 was 69.5 µM.

In turn, `O=c1cc([C@@H]2CCN[C@H](Cc3cc(F)ccc3F)C2)o[nH]1` [Example 125, 5-((2S,4R)-2-(2,5-Difluorobenzyl)piperidin-4-yl)isoxazol-3(2H)-one] came in with a half-maximal inhibitory concentration (IC50) of 92.9 µM.

Regarding `O=c1cc([C@@H]2CCN[C@@H](c3ccc(C(F)(F)F)nc3)C2)o[nH]1` (relative stereo) [Example 41, 5-(Trans-2-(6-(trifluoromethyl)pyridin-3-yl)piperidin-4-yl)isoxazol-3(2H)-one], the IC50 was 40.9 µM.

For the compound `O=c1cc([C@H]2CCN[C@@H](Cc3cc(F)cc(C(F)(F)F)c3)C2)o[nH]1` [Example 137, 5-((2R,4S)-2-(3-Fluoro-5-(trifluoromethyl)benzyl)piperidin-4-yl)isoxazol-3(2H)-one], the concentration for half-maximal inhibition (IC50) is 1 µM.

As to `O=c1cc([C@@H]2CCN[C@@H](c3ccc(Cl)cc3Cl)C2)o[nH]1` [Example 54, 5-((2R,4R)-2-(2,4-Dichlorophenyl)piperidin-4-yl)isoxazol-3(2H)-one], the half-maximal inhibitory concentration (IC50) amounted to 372 µM.

Compound `O=c1cc([C@H]2CCN[C@@H](c3cc(F)c(C(F)(F)F)c(F)c3)C2)o[nH]1` [Example 70, 5-((2R,4S)-2-(3,5-Difluoro-4-(trifluoromethyl)phenyl)piperidin-4-yl)isoxazol-3(2H)-one] had a half-inhibitory concentration (IC50) of 2.5 µM. This IC50 is about 150-fold lower than that of the compound before.

Consider `CC(C)(C)c1ccc(C[C@H]2C[C@@H](c3cc(=O)[nH]o3)CCN2)cc1` [Example 12, 5-((2R,4S)-2-(4-tert-Butylbenzyl)piperidin-4-yl)isoxazol-3(2H)-one], for which the IC50 was determined as 2.25 µM. The IC50 values of the last two compounds are within 1.5-fold of each other.

For `O=c1cc([C@H]2CCN[C@@H](Cc3ccc(OC(F)(F)F)cc3)C2)o[nH]1` [Example 113, 5-((2R,4S)-2-(4-(Trifluoromethoxy)benzyl)piperidin-4-yl)isoxazol-3(2H)-one], the concentration for half-maximal inhibition (IC50) is 1.1 µM.

In turn, `O=c1cc([C@@H]2CCN[C@@H](c3cc(F)c(C(F)(F)F)c(F)c3)C2)o[nH]1` (relative stereo) [Example 71, 5-(Trans-2-(3,5-difluoro-4-(trifluoromethyl)phenyl)piperidin-4-yl)isoxazol-3(2H)-one] came in with a concentration for half-maximal inhibition (IC50) of 11.6 µM.

`O=c1cc([C@@H]2CCN[C@H](Cc3ccc(F)cc3F)C2)o[nH]1` [Example 135, 5-((2S,4R)-2-(2,4-Difluorobenzyl)piperidin-4-yl)isoxazol-3(2H)-one] showed an IC50 of 69.1 µM.

`O=c1cc([C@H]2CCN[C@@H](Cc3ccccc3C(F)(F)F)C2)o[nH]1` [Example 110, 5-((2R,4S)-2-(2-(Trifluoromethyl)benzyl)piperidin-4-yl)isoxazol-3(2H)-one] came in with an IC50 of 1.2 µM.

`Cn1nnc([C@H]2C[C@@H](c3cc(=O)[nH]o3)CCN2)n1` [Example 81, 5-((2R,4S)-2-(2-Methyl-2H-tetrazol-5-yl)piperidin-4-yl)isoxazol-3(2H)-one] returned an IC50 of 1.6 µM.

Regarding `O=c1cc([C@@H]2CCN[C@@H](Cc3ccc(C(F)(F)F)cc3)C2)o[nH]1` [Example 106, 5-((2R,4R)-2-(4-(Trifluoromethyl)benzyl)piperidin-4-yl)isoxazol-3(2H)-one], the IC50 came out at 88.8 µM. This IC50 lies about 55-fold higher than the previous one.

The compound `O=c1cc([C@@H]2CCN[C@@H](Cc3cccc(C(F)(F)F)c3)C2)o[nH]1` (relative stereo) [Example 109, 5-(Trans-2-(3-(trifluoromethyl)benzyl)piperidin-4-yl)isoxazol-3(2H)-one] yielded an IC50 of 5 µM.

`O=c1cc([C@H]2CCN[C@H](c3ccc(Cl)cc3Cl)C2)o[nH]1` [Example 53, 5-((2S,4S)-2-(2,4-Dichlorophenyl)piperidin-4-yl)isoxazol-3(2H)-one] showed a 50% inhibitory concentration (IC50) of 72.9 µM.

Compound `O=c1cc([C@@H]2CCN[C@@H](c3cc(Cl)cc(Cl)c3)C2)o[nH]1` (relative stereo) [Example 57, 5-(Trans-2-(3,5-dichlorophenyl)piperidin-4-yl)isoxazol-3(2H)-one] returned a half-inhibitory concentration (IC50) of 40 µM.

Regarding `O=c1cc([C@H]2CCN[C@@H](c3ccc(C(F)(F)F)cc3)C2)o[nH]1` [Example 33, 5-((2R,4S)-2-(4-(Trifluoromethyl)phenyl)piperidin-4-yl)isoxazol-3(2H)-one], the 50% inhibitory concentration (IC50) is 1.43 µM.

For `O=c1cc([C@@H]2CCN[C@@H](Cc3ccc(C(F)(F)F)c(F)c3)C2)o[nH]1` (relative stereo) [Example 142, 5-(Trans-2-(3-fluoro-4-(trifluoromethyl)benzyl)piperidin-4-yl)isoxazol-3(2H)-one], the half-inhibitory concentration (IC50) came to 1.8 µM.

On to `CC(C)(C)c1ccc([C@@H]2C[C@H](c3cc(=O)[nH]o3)CCN2)s1` [Example 43, 5-((2S,4R)-2-(5-tert-Butylthiophen-2-yl)piperidin-4-yl)isoxazol-3(2H)-one], for which the midpoint of inhibition, the IC50, lay at 77.5 µM.

Compound `O=c1cc([C@H]2CCN[C@@H](c3ccc(Cl)cc3Cl)C2)o[nH]1` [Example 51, 5-((2R,4S)-2-(2,4-Dichlorophenyl)piperidin-4-yl)isoxazol-3(2H)-one] registered an IC50 of 0.9 µM.

Compound `O=c1cc([C@@H]2CCN[C@@H](c3cc(F)c(F)c(F)c3)C2)o[nH]1` (relative stereo) [Example 62, 5-(Trans-2-(3,4,5-trifluorophenyl)piperidin-4-yl)isoxazol-3(2H)-one] had a half-inhibitory concentration (IC50) of 7.1 µM.

Take `O=c1cc([C@@H]2CCN[C@@H](Cc3ccc(F)cc3F)C2)o[nH]1` (relative stereo) [Example 136, 5-(Trans-2-(2,4-difluorobenzyl)piperidin-4-yl)isoxazol-3(2H)-one]: the 50% inhibitory concentration (IC50) amounted to 4.94 µM.

Take `O=c1cc([C@@H]2CCN[C@@H](Cc3cc(F)cc(F)c3)C2)o[nH]1` [Example 133, 5-((2R,4R)-2-(3,5-Difluorobenzyl)piperidin-4-yl)isoxazol-3(2H)-one]: the IC50 was 120 µM. This IC50 is about 24-fold higher than that of the compound before.

As for `O=c1cc([C@H]2CCN[C@@H](Cc3ccc(Cl)cc3)C2)o[nH]1` [Example 115, 5-((2R,4S)-2-(4-Chlorobenzyl)piperidin-4-yl)isoxazol-3(2H)-one], the IC50 was 0.8 µM.
